Measurements as given in patent US10426815B2, “Prevention and treatment of itch with an MRGPR antagonist” (THE GENERAL HOSPITAL CORPORATION, priority 2015, dated 2019).

Columns and labels:
[1] = system: human LAD2 mast cells; test: Human LAD2 mast cell degranulation assay (β-hexosaminidase release); type: cell-based; conditions: LAD2 cells preincubated with 100 μM QWF for 10 min
Procedure: The human LAD2 mast cell line (from D. Metcalfe, National Institute of Allergy and Infectious Diseases, NIH, Bethesda, Md.) was cultured in StemPro-34 SFM medium (LIFE TECHNOLOGIES) supplemented with 2 mM L-glutamine, 100 U/ml penicillin, 100 μg/ml streptomycin, and 100 ng/ml recombinant human stem cell factor (PEPROTECH). The cells were maintained at 0.25-5×10^5 cells/ml at 37° C. and 5% CO2 and hemi-depleted each week.
Degranulation was measured as described previously (36). In brief, LAD2 cells were preincubated with 100 μM QWF for 10 min before activation by agonists at indicated concentrations for 30 min. The level of mast cell degranulation was assessed by the release of β-hexosaminidase in mast cell granules, quantified by the level of its substrate p-nitrophenyl N-acetyl-β-D-glucosamide (PNAG) digested in a colorimetric assay.

[2] = molecular target: T1, hMRGPRX2 (Homo sapiens, UniProt Q96LB1); test: Concentration-effect curves of substance P versus QWF, stable HEK-293 cell line; type: cell-based; conditions: stable HEK-293 clone; experiment done once, triplicate points
T1 construct: expressed in transfected cells
T1 sequence (Q96LB1 1-330): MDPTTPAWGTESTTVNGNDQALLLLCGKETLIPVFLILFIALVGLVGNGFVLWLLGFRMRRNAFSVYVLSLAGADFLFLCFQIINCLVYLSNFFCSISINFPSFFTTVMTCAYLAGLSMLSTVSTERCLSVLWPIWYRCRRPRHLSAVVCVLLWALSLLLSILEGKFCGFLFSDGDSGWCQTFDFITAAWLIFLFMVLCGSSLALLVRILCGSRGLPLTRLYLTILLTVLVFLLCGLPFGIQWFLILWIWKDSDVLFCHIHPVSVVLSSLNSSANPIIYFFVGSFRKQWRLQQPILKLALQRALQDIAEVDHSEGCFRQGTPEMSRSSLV
Excerpt: Concentration-effect curves with substance P versus the indicated concentrations of QWF on a stable HEK-293 cell line expressing hMRGPRX2. HEK293 cells were transfected with a pcDNA3.1(−) vector containing MRGPRX2 cDNA and clones resistant to […] (G418) were selected. The data were generated from one of those clones. The experiment was done once with each data point done in triplicate. Error bars represent+/−SEM.

mode of QWF antagonism of substance P at hMRGPRX2 [2]: competitive antagonist
Substance: Boc-Gln-D-Trp(Formyl)-Phe benzyl ester trifluoroacetate [QWF]
inhibition of degranulation induced by SP [1]: significantly inhibits
inhibition of degranulation induced by atracurium [1]: significantly inhibits
inhibition of degranulation induced by ciprofloxacin [1]: significantly inhibits
inhibition of degranulation induced by compound 48/80 [1]: significantly inhibits
